Test results as given in patent publication US5496849A, “Sulfonic acid derivative and its pharmaceutical application” (Toray Industries, Inc., priority 1992, dated 1996).

Assays:
[1] = system: vasoconstriction of rat thoracic aorta induced by U-46619; assay: Vasoconstriction inhibitory action (U-46619-induced constriction of thoracic aorta spiral specimens); set-up: species or system long Evans rats; conditions: 10 min, pH 7.4, minimum concentration at which inhibition rate was 50% or more, 10 ng/ml U-46619, drug applied 10 minutes, 37° C., read-out: Vasoconstriction Inhibitory Action MIC
Procedure: Male and female long Evans rats having body weights of 150-200 g were used in this example. After sacrificing the animals by decapitation, the thoracic aorta was removed, and the outer membrane was peeled off to obtain I2 spiral specimens roughly 2 cm in length. Blood vessel specimens were warmed to 37° C. and preserved in a Magnus tube containing 10 ml of a nutrient solution aerated with 95% oxygen+5% carbon dioxide gas. The nutrient solution contained 118.3 mmol of NaCl, 4.7 mmol of KCl, […] of CaCl, 1.2 mmol of MgSO4, 1.2 mmol of KH2 PO4, 25 mmol of NaCHO3, 11.1 mmol of D-glucose, 0.03 mmol of EDTA along with 1 μg/ml each of atropin, phentolamine, mepiramine, cyproheptadine, propranolol and indometacin, and was adjusted to a pH of 7.4. Vasoconstriction was measured using an isometric transducer (Harward UF-1 Transducer and Sekonic SS-250F Graph recorder). An equilibration time of 3 hours was provided after the blood vessels were installed on the Magnus device, and fresh nutrient solution was replaced every 30 minutes during that time. […] of U-46619, having TXA2 action (to reach roughly 75% of maximum constriction), was applied for 30 minutes to constrict the vessels. The maximum stable constriction during this time was taken to be the control constriction (C1). Next, the blood vessels were washed several times with nutrient solution to remove the drug. After allowing a recovery period of 30 minutes, the test drugs were applied at various concentrations for 10 minutes followed by again constricting the vessels by applying 10 ng/ml of U-46619 for 30 minutes. The maximum stable constriction during this time was taken to be the constriction of the test drugs (C2). The inhibition rates of vasoconstriction induced by the drugs and U-46619 were determined according to the following formula, and the minimum concentration at which the inhibition rate was 50% or more was determined as the minimum inhibitory concentration (MIC).
((C1-C2)/C1)×100=Inhibition rate (%)

[2] = system: platelet aggregation induced by U-46619 in human platelet-rich plasma (PRP); assay: Platelet aggregation inhibitory action (U-46619-induced, human platelet-rich plasma); type: cell-based; conditions: compounds added 1 minute before U-46619, turbidity
Procedure: Human whole blood drawn from the median cubital vein was centrifuged for 10 minutes at 800 rpm, and the upper portion was collected as platelet-rich plasma (PRP). […] The size of the aggregates were measured with a platelet aggregate measuring instrument (Hematracer 1, Nikko Bioscience) as the change in turbidity. The compounds were added 1 minute before addition of U-46619, and the concentration which inhibits aggregation by 50% was calculated as the IC50 value.

Thromboxane A2 Receptor = target: T1, Thromboxane A2 Receptor (Oryctolagus cuniculus, UniProt Q6WQI8); assay: Receptor binding experiment: Thromboxane A2 Receptor Binding Test ([3H]SQ29548, washed platelets); set-up: species or system New Zealand White rabbits; conditions: rabbit washed platelets; [3H]SQ29548 3 nM; 60 minutes at 25° C.; read-out: Binding Inhibitory Action IC50 (converted)
T1 sequence (Q6WQI8 1-233): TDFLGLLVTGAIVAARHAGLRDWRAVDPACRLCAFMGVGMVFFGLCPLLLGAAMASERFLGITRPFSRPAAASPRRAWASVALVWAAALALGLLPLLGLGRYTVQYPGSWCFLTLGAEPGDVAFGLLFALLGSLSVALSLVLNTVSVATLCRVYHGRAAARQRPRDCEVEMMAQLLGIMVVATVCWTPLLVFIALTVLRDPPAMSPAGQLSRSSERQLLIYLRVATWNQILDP
Procedure: Whole blood from New Zealand White rabbits was collected into a container containing ACD solution (1.175 g of sodium citrate, 0.685 g of citric acid, and 1 g of dextrose dissolved in 50 ml of distilled water) followed by centrifuging at room temperature for 10 minutes at 180 ×g to obtain platelet-rich plasma. Moreover, this platelet-rich plasma was further centrifuged at room temperature and 2800 ×g to result in sedimentation of the platelets. The platelets were resuspended in 50 mM Tris hydrochloric acid buffer solution (pH 7.2, containing […]) and again centrifuged at 4° C. for 15 minutes at 2800 ×g. This procedure was repeated twice to prepare the washed platelets, and adjusted to a final concentration of 10 mg/ml (wet weight). Tritium-labelled SQ29548 ([3H]SQ29548) was used for the TXA2 ligand. In an antagonism experiment, 20 μl of [3H]SQ29548 at a final concentration of 3 nM were added to 500 μl of a 10 mg/ml platelet suspension, together with adding 2.6 μl of the test drug dissolved in a suitable buffer. After incubating for 60 minutes at 25° C., the mixture was filtered over a glass filter using the Celherbster method, the filter was washed with 50 mM Tris hydrochloric acid buffer solution (3 ×4 ml), and radioactivity was measured with a scintillation counter to determine the amount of [3H]SQ29548 bound to the platelets. In addition, in a saturation test, 20 μl of [3H]SQ29548 were added to a final concentration of 0.1-50 nM followed by the addition of 2.6 μl of BM13505 at a final concentration of 1 μM in order to examine non-specific binding and carry out a binding experiment. The concentration of the test drug which inhibited binding of [3H]SQ29548 by 50% was determined as the IC50 value.

Compound: O=C(O)c1cccc2c1O[C@H]1C[C@@H](O)[C@H](NS(=O)(=O)c3ccccc3)[C@@H]21 (racemic) [(39), (1RS, 2RS, 3aSR, 8bRS)-1-benzenesulfonamido-2-hydroxy-2,3,3a,8b-tetrahydro-1H-cyclopenta[b]benzofuran-5-carboxylic acid]
- minimal effective concentration [1]: 0.25 µg/mL

Compound: O=C(O)Cc1cccc2c1O[C@H]1C[C@@H](O)[C@H](NS(=O)(=O)c3ccccc3)[C@@H]21 (racemic) [(41), (1RS, 2RS, 3aSR, 8bRS)-1-benzenesulfonamido-2-hydroxy-2,3,3a,8b-tetrahydro-1H-cyclopenta[b]benzofuran-5-acetic acid]
- IC50 [2]: 1700 nM
- minimal effective concentration [1]: 0.25 µg/mL
- IC50 (Thromboxane A2 Receptor): 2080 nM

Compound: O=C(O)CCc1cccc2c1O[C@H]1C[C@@H](O)[C@H](NS(=O)(=O)c3ccccc3)[C@@H]21 (racemic) [(43), (1RS, 2RS, 3aSR, 8bRS)-1-benzenesulfonamido-2-hydroxy-2,3,3a,8b-tetrahydro-1H-cyclopenta[b]benzofuran-5-propionic acid]
- IC50 [2]: 510 nM
- minimal effective concentration [1]: 0.3 µg/mL
- IC50 (Thromboxane A2 Receptor): 322 nM

Compound: O=C(O)CCCc1cccc2c1O[C@H]1C[C@@H](O)[C@H](NS(=O)(=O)c3ccccc3)[C@@H]21 (racemic) [(45), (1RS, 2RS, 3aSR, 8bRS)-1-benzenesulfonamido-2-hydroxy-2,3,3a,8b-tetrahydro-1H-cyclopenta[b]benzofuran-5-butyric acid]
- IC50 [2]: 4300 nM
- IC50 (Thromboxane A2 Receptor): 4790 nM

Compound: COC(=O)COc1cccc2c1O[C@H]1C[C@@H](O)[C@H](NS(=O)(=O)c3ccccc3)[C@@H]21 (racemic) [(46), (1RS, 2RS, 3aSR, 8bRS)-1-benzenesulfonamido-2-hydroxy-2,3,3a,8b-tetrahydro-1H-cyclopenta[b]benzofuran-5-yloxyacetic acid methyl ester]
- IC50 [2]: 68 nM
- minimal effective concentration [1]: 0.03 µg/mL
- IC50 (Thromboxane A2 Receptor): 23.1 nM

Compound: O=C(O)COc1cccc2c1O[C@H]1C[C@@H](O)[C@H](NS(=O)(=O)c3ccccc3)[C@@H]21 (racemic) [(47), (1RS, 2RS, 3aSR, 8bRS)-1-benzenesulfonamido-2-hydroxy-2,3,3a,8b-tetrahydro-1H-cyclopenta[b]benzofuran-5-yloxyacetic acid]
- IC50 [2]: 18 nM
- minimal effective concentration [1]: 0.025 µg/mL
- IC50 (Thromboxane A2 Receptor): 7.4 nM

Compound: COc1ccc(S(=O)(=O)N[C@@H]2[C@H]3c4cccc(OCC(=O)O)c4O[C@H]3C[C@H]2O)cc1 (racemic) [(51), (1RS, 2RS, 3aSR, 8bRS)-1-(p-methoxybenzenesulfonamido)-2-hydroxy-2,3,3a,8b-tetrahydro-1H-cyclopenta[b]benzofuran-5-yloxyacetic acid]
- IC50 [2]: 68 nM
- minimal effective concentration [1]: 0.1 µg/mL
- IC50 (Thromboxane A2 Receptor): 27.6 nM

Compound: O=C(O)COc1cccc2c1O[C@H]1C[C@@H](O)[C@H](NS(=O)(=O)c3ccc(F)cc3)[C@@H]21 (racemic) [(53), (1RS, 2RS, 3aSR, 8bRS)-1-(p-fluorobenzenesulfonamido)-2-hydroxy-2,3,3a,8b-tetrahydro-1H-cyclopenta[b]benzofuran-5-yloxyacetic acid]
- IC50 [2]: 33 nM
- minimal effective concentration [1]: 0.05 µg/mL
- IC50 (Thromboxane A2 Receptor): 21 nM

Compound: O=C(O)COc1cccc2c1O[C@H]1C[C@@H](O)[C@H](NS(=O)(=O)c3ccc(C(F)(F)F)cc3)[C@@H]21 (racemic) [(65), (1RS, 2RS, 3aSR, 8bRS)-1-(p-trifluoromethylbenzenesulfonamido)-2-hydroxy-2,3,3a,8b-tetrahydro-1H-cyclopenta [b]benzofuran-5-yloxyacetic acid]
- IC50 [2]: 270 nM
- IC50 (Thromboxane A2 Receptor): 97.2 nM

Compound: O=C(O)COc1cccc2c1O[C@H]1C[C@@H](O)[C@H](NS(=O)(=O)Cc3ccccc3)[C@@H]21 (racemic) [(74), (1RS, 2RS, 3aSR, 8bRS)-1-phenylmethanesulfonamido-2-hydroxy-2,3,3a,8b-tetrahydro-1H-cyclopenta[b]benzofuran-5-yloxyacetic acid]
- IC50 [2]: 5300 nM
- IC50 (Thromboxane A2 Receptor): 858 nM

Compound: O=C(O)COc1cccc2c1O[C@H]1C[C@@H](O)[C@H](NS(=O)(=O)CCc3ccccc3)[C@@H]21 (racemic) [(76), (1RS, 2RS, 3aSR, 8bRS)-1-(2-phenylethanesulfonamido)-2-hydroxy-2,3,3a,8b-tetrahydro-1H-cyclopenta[b]benzofuran-5-yloxyacetic acid]
- IC50 [2]: 550 nM
- IC50 (Thromboxane A2 Receptor): 122 nM

Compound: O=C(O)COc1cccc2c1O[C@H]1C[C@@H](O)[C@H](NS(=O)(=O)c3ccc4ccccc4c3)[C@@H]21 (racemic) [(78), (1RS, 2RS, 3aSR, 8bRS)-1-(2-naphthalenesulfonamido)-2-hydroxy-2,3,3a,8b-tetrahydro-1H-cyclopenta[b]benzofuran-5-yloxyacetic acid]
- IC50 [2]: 51 nM
- IC50 (Thromboxane A2 Receptor): 2.09 nM

Compound: CCCCS(=O)(=O)N[C@@H]1[C@H]2c3cccc(OCC(=O)O)c3O[C@H]2C[C@H]1O (racemic) [(82), (1RS, 2RS, 3aSR, 8bRS)-1-butanesulfonamido-2-hydroxy-2,3,3a,8b-tetrahydro-1H-cyclopenta[b]benzofuran-5-yloxyacetic acid]
- IC50 [2]: 1000 nM
- IC50 (Thromboxane A2 Receptor): 1220 nM

Compound: CCCCCCCCS(=O)(=O)N[C@@H]1[C@H]2c3cccc(OCC(=O)O)c3O[C@H]2C[C@H]1O (racemic) [(84), (1RS, 2RS, 3aSR, 8bRS)-1-octanesulfonamido-2-hydroxy-2,3,3a,8b-tetrahydro-1H-cyclopenta[b]benzofuran-5-yloxyacetic acid]
- IC50 [2]: 7300 nM
- IC50 (Thromboxane A2 Receptor): 1220 nM

Compound: COC(=O)COc1cccc2c1O[C@H]1C[C@@H](O)[C@H](CNS(=O)(=O)c3ccccc3)[C@@H]21 (racemic) [(96), (1SR, 2RS, 3aSR, 8bSR)-1-((benzenesulfonamido)methyl)-2-hydroxy-2,3,3a,8b-tetrahydro-1H-cyclopenta[b]benzofuran-5-yloxyacetic acid methyl ester]
- IC50 [2]: 670 nM
- IC50 (Thromboxane A2 Receptor): 415 nM

Compound: Cc1ccc(S(=O)(=O)O[C@H]2CC[C@@H]3Oc4c(OCC(=O)O)cccc4[C@@H]32)cc1 (racemic) [(123), (1SR, 3aSR, 8bSR)-1-((p-tolyl)sulfonyloxy)-2,3,3a,8b-tetrahydro-1H-cyclopenta[b]benzofuran-5-yloxyacetic acid]
- IC50 [2]: 93 nM

Compound: O=C(O)COc1cccc2c1O[C@H]1CC[C@H](OS(=O)(=O)c3ccc(Cl)cc3)[C@@H]21 (racemic) [(125), (1SR, 3aSR, 8bSR)-1-((p-chlorophenyl)sulfonyloxy)-2,3,3a,8b-tetrahydro-1H-cyclopenta[b]benzofuran-5-yloxyacetic acid]
- IC50 [2]: 94 nM

Compound: O=C(O)COc1cccc2c1O[C@H]1CC[C@H](OS(=O)(=O)c3ccc(F)cc3)[C@@H]21 (racemic) [(127), (1SR, 3aSR, 8bSR)-1-((p-fluorophenyl)sulfonyloxy)-2,3,3a,8b-tetrahydro-1H-cyclopenta[b]benzofuran-5-yloxyacetic acid]
- IC50 [2]: 100 nM
